Data published in US10253024B2, “Polycyclic indoline and indolenine compounds” (The Regents of the University of Colorado, a body corporate, priority 2015, dated 2019).
Converted amounts (≈) assume the structure as drawn. Counter-ions that a name gives are not always drawn.

Tests used:
MRSA BAA-44 = assay: MIC of antibiotics in absence and presence of 11b (broth microdilution); type: cell-based, S. aureus; conditions: for Fold of potentiation: MIC alone versus with 10 μM 11b; for MIC: Staphylococcus aureus, antibiotic alone; for MIC (+11b): in the presence of 10 μM 11b
Description: The MICs of a variety of antibiotics in the presence and absence of 11b, respectively. In addition to methicillin, BAA-44 is also resistant to a wide range of antibiotics, such as tetracycline, erythromycin, and daptomycin. As shown in Table 2-3, compound 11b potentiates the activity of all β-lactams tested, such as oxacillin, amox/clav, cefazolin, and meropenem. Without being bound by any theory, it is believed compound 11b and other compounds of the invention are selective potentiators of β-lactams.
(§1) The minimal inhibitory concentrations (MICS) of antimicrobial compounds and 11b were determined by the broth microdilution method detailed in the Clinical and Laboratory Standards Institute (CLSI) handbook. All antimicrobial compounds were purchased from Sigma-Aldrich. The growth media used for all MIC experiments was Mueller Hinton Broth (MHB) purchased from HIMEDIA through VWR (cat: 95039-356). The inoculum was prepared by diluting a bacterial day culture (OD600 0.15-0.4) to OD600 0.002. This dilution was further diluted two fold when added to 96 well microplates (USA Scientific CytoOne 96-well TC plate, cat: CC7682-7596) for a final inoculum concentration of OD600 0.001. All plates were incubated at 37° C. with shaking for 18 hours before results were interpreted.
The MRSA strain ATCC BAA-44 was used to determine the MIC values of various antimicrobial compounds in the presence of 10 μM 11b. The experiment was conducted similarly to the CLSI MIC determination described previously; however, MHB was supplemented with 20 μM 11b prior to set up and inoculation. The final concentration of 11b after inoculation with BAA-44 was 10 μM.

in vitro = conditions: dog, MDCK
Procedure: (§2) To test this, permeability assessments were performed using MDCK cells.

[1] = system: multi-drug resistant MRSA strain, ATCC BAA-44; assay: Minimum inhibitory concentration (MIC) of the compound alone; type: cell-based, S. aureus; conditions: for MIC: Staphylococcus aureus, MRSA ATCC BAA-44, compound alone; for antibacterial activity on its own (in words): MRSA BAA-44
Procedure: (§3) ATIs 11-14 represent a wide range of clogD values and their minimum re-sensitizing concentrations (MRCS) for cefazolin (i.e., a first-generation cephalosporin) and amoxicillin/clavulanic acid (i.e., Augmentin, amox/clav) was evaluated as well as their minimum inhibitory concentrations (MICs) in a multi-drug resistant MRSA strain, ATCC BAA-44. Any compounds with promising MRC and MIC were then evaluated for potential mammalian toxicity by determining their half growth inhibitory concentrations (GI50) in human cervical adenocarcinoma (HeLa) cells.
as §1

[2] = system: multi-drug resistant MRSA strain, ATCC BAA-44; assay: Minimum re-sensitizing concentration (MRC) for cefazolin; type: cell-based, S. aureus; conditions: MRSA ATCC BAA-44; re-sensitizing to cefazolin
Procedure: as §3
(§4) Antibiotic MIC values where S. aureus is considered susceptible were determined from the CLSI handbook. MHB was supplemented with the antimicrobial at a concentration two fold greater than the CLSI susceptible MIC value. Two-fold serial dilutions of 11b were prepared in antibiotic supplemented media in 96-well microplates. These were inoculated with MRSA diluted to OD600 0.002 and incubated at 37° C. with shaking for 18 hours before results were interpreted. The concentration of 11b in antibiotic supplemented media at which there was no observable growth was considered the minimum resensitizing concentration (MRC). For amoxicillin/clavulanic acid, the initial concentration was 8/4 μg/mL; for cefazolin, 16 μg/mL. A 50 μL portion of the antibiotic containing media was added to each well of 96-well plates, and 100 μL was added to the top row. A 1.28 μL portion of 5 mg/mL 11b was added to the top row of each plate to afford a concentration of 64 μg/mL in the top row of each plate, and 2-fold serial dilutions were performed down the columns. Once the plates were prepared, a day culture of MRSA was diluted to OD600 0.002, and 50 μL was added to each well. The final concentration of MRSA added was OD600 0.001, the final concentration of amoxicillin/clavulanic acid was 4/2 μg/mL, the final concentration of cefazolin was 8 μg/mL, and the highest concentration of 11b tested was 32 μg/mL. Plates were incubated overnight at 37° C. with shaking. The MRC value was determined as the concentration of 11b in the presence of antibiotic at which there was no observable overnight growth.

[3] = system: multi-drug resistant MRSA strain, ATCC BAA-44; assay: Minimum re-sensitizing concentration (MRC) for amoxicillin/clavulanic acid; type: cell-based, S. aureus; conditions: MRSA ATCC BAA-44; re-sensitizing to amoxicillin/clavulanic acid
Procedure: as §3, §4

[4] = Half growth inhibitory concentration (GI50), mammalian toxicity; type: cell-based; conditions: human, HeLa cells (human cervical adenocarcinoma)
Procedure: as §3
To evaluate the cytotoxicity of 11b in mammalian cells, a cell viability assay was carried out using CellTiter-Glo luminescent cell viability assay kit (Promega). Human cervical adenocarcinoma HeLa cells were seeded on white, cell-culture treated 96-well plates (Corning: 3917) with Dulbecco's modified Eagle's medium (DMEM) supplemented with 10% fetal calf serum (FCS), 1% penicillin/streptomycin, at the densities of 20,000 cells/well. The medium volume for each well was 100 μL. Cells were incubated at 37° C. in 5% CO2/95% air for 16 hours. The medium was removed from each well and replaced with 99 μL of warmed fresh medium. To each well was then added 1.0 μL of 11b in DMSO with the final concentrations of 1.56-200 μg/mL. Each concentrate was performed in two replicates. After incubation at 37° C. for another 24 hours, the plates were equilibrated to room temperature for 30 minutes. 100 μL of CellTiter-Glo reagent (Promega) was added to each well and mixed for 2 minutes on an orbital shaker. The plate was incubated at room temperature for another 10 minutes to stabilize luminescent signal. The luminescence of each sample was recorded in an Envision Multilabel Plate Reader (Perkin Elmer).

[5] = In vivo pharmacokinetics and tolerability, single IP dose; conditions: mouse
Procedure: (§5) The physiochemical properties of various compounds were evaluated. […] In vivo pharmacokinetic (PK) properties of 13 was evaluated.
as §2

[6] = Saturated concentration (aqueous solubility); type: physicochemical
Procedure: as §5

[7] = system: MRSA strains NRS-100 and NRS-384, VRSA strain NR-46414; assay: MRC of 13 in further MRSA/VRSA strains; type: cell-based, S. aureus; conditions: community-acquired MRSA NRS-100, NRS-384 and VRSA NR-46414
Procedure: Compound 14 is zwitterionic under physiological conditions and has even lower clogD value. Further evaluations of 13 in a variety of MRSA strains, such as community-acquired MRSA strains NRS-100 and NRS-384, and vancomycin-resistant S. aureus (VRSA) strain NR-46414, also gave a similar results (MRCs=2 μg mL^−1).
(§6) Antibiotic MIC values where S. aureus is considered susceptible were determined from the CLSI handbook. MHB was supplemented with the antimicrobial at a concentration two fold greater than the CLSI susceptible MIC value. Two-fold serial dilutions of 11b were prepared in antibiotic supplemented media in 96-well microplates. These were inoculated with MRSA diluted to OD600 0.002 and incubated at 37° C. with shaking for 18 hours before results were interpreted. The concentration of 11b in antibiotic supplemented media at which there was no observable growth was considered the minimum resensitizing concentration (MRC). For amoxicillin/clavulanic acid, the initial concentration was 8/4 μg/mL; for cefazolin, 16 μg/mL. A 50 μL portion of the antibiotic containing media was added to each well of 96-well plates, and 100 μL was added to the top row. […] The MRC value was determined as the concentration of 11b in the presence of antibiotic at which there was no observable overnight growth.

[8] = system: BAA-44, NRS-100, NRS-384, NR-46414 and NR-46421; assay: MRC of 11b for amox/clav and cefazolin in a variety of MRSA and VRSA strains; type: cell-based, S. aureus; conditions: all strains tested
Procedure: (§7) The minimum re-sensitizing concentrations (MRCS) of 11b to re-sensitize a variety of MRSA strains to β-lactam antibiotics, amox/clav and cefazolin was also evaluated.
as §6, with “row. A 1.28 μL portion of 5 mg/mL 11b was added to the top row of each plate to afford a concentration of 64 μg/mL in the top row of each plate, and 2-fold serial dilutions were performed down the columns.” for “row.”

MRSA strain ATCC BAA-44 = assay: Checkerboard MIC study of 11b and methicillin (FICI); type: cell-based, S. aureus; conditions: 11b with methicillin, ≤0.5 indicates synergy
Procedure: Tetracyclic indolenine compounds were then evaluated in a series of bacterial whole-cell assays. Compound 11b potentiated the activity of methicillin in a multi-drug resistant MRSA strain, ATCC BAA-44. To assess the degree of synergy between 11b and methicillin, a checkerboard minimum inhibitory concentration (MIC) study was performed.

[9] = system: BAA-44, NRS-100, NRS-384, NR-46414 and NR-46421; assay: MIC of 11b on its own in a variety of MRSA and VRSA strains; type: cell-based, S. aureus; conditions: all strains tested
Procedure: as §7, §1

MIC (MRSA BAA-44)	MIC (+11b) (MRSA BAA-44)	MIC [1]	Compound	Fold of potentiation (MRSA BAA-44)	MRC Cef [2]	MRC Amox/clav [3]	other results
–	–	–	OC[C@@H](O)[C@@H](O)[C@H](O)[C@H](O)CO [mannitol]	–	–	–	Papp (in vitro): 1.51 ×10⁻⁶ cm/s
–	–	> 32 µg/mL	C=C1CN(S(C)(=O)=O)C[C@@H]2Nc3c(F)cc(Br)cc3[C@]12CCNS(=O)(=O)c1ccc(Cl)cc1 [Ms-ATI 11b, N-(2-((4aS,9aR)-6-bromo-8-fluoro-4-methylene-2-(methylsulfonyl)-1,2,3,4,9,9a-hexahydro-4aH-pyrido[3,4-b]indol-4a-yl)ethyl)-4-chlorobenzenesulfonamide]	–	>32 µg/mL	>32 µg/mL	–
128 µg/mL	8 µg/mL	–	COc1cccc(OC)c1C(=O)N[C@@H]1C(=O)N2[C@@H]1SC(C)(C)[C@@H]2C(=O)O [Methicillin]	16	–	–	–
4 µg/mL	1 µg/mL	–	C[C@@H](O)[C@H]1C(=O)N2C(C(=O)O)=C(S[C@@H]3CN[C@H](C(=O)N(C)C)C3)[C@H](C)[C@H]12 [Meropenem]	4	–	–	–
–	–	8 µg/mL (≈ 16 µM)	C=C1CNC[C@@H]2Nc3c(F)cc(Br)cc3[C@]12CCNS(=O)(=O)c1ccc(Cl)cc1 [NH-ATI 12, N-(2-((4aS,9aR)-6-bromo-8-fluoro-4-methylene-1,2,3,4,9,9a-hexahydro-4aH-pyrido[3,4-b]indol-4a-yl)ethyl)-4-chlorobenzenesulfonamide]	–	4 µg/mL	4 µg/mL	antibacterial activity on its own (in words) [1]: potent antibacterial activity on its own; GI50 at 24 h [4]: 6.7 µg/mL (≈ 13.4 µM)
–	–	> 32 µg/mL	C=C1CN(S(=O)(=O)c2ccc([N+](=O)[O-])cc2)C[C@@H]2Nc3c(F)cc(Br)cc3[C@]12CCNS(=O)(=O)c1ccc(Cl)cc1 [Ns-ATI 11a, N-(2-((4aS,9aR)-6-bromo-8-fluoro-4-methylene-2-((4-nitrophenyl)sulfonyl)-1,2,3,4,9,9a-hexahydro-4aH-pyrido[3,4-b]indol-4a-yl)ethyl)-4-chlorobenzenesulfonamide]	–	>32 µg/mL	>32 µg/mL	–
128 µg/mL	4 µg/mL	–	Cc1nnc(SCC2=C(C(=O)O)N3C(=O)[C@@H](NC(=O)Cn4cnnn4)[C@H]3SC2)s1 [Cefazolin]	32	–	–	–
–	–	8 µg/mL (≈ 14.7 µM)	C=C1CN(C(=N)N)C[C@@H]2Nc3c(F)cc(Br)cc3[C@]12CCNS(=O)(=O)c1ccc(Cl)cc1 [Guan-ATI 13, (4aS,9aR)-6-bromo-4a-(2-((4-chlorophenyl)sulfonamido)ethyl)-8-fluoro-4-methylene-1,3,4,4a,9,9a-hexahydro-2H-pyrido[3,4-b]indole-2-carboximidamide]	–	2 µg/mL	2 µg/mL	plasma levels as multiple of MRC in MRSA ([5]; in vivo, 30 min): approximately 4 ×MRC; AUC ([5]; plasma, 30 mg/kg): 18200 ng·h/mL; Cmax ([5]; plasma, 30 mg/kg): 8000 ng/mL; half-life ([5]; plasma, 30 mg/kg): 2.5 h; saturated concentration [6]: 587 µg/mL; saturated concentration as fold of MRC in MRSA [6]: ~300 fold; MRCs [7]: 2 µg/mL; Papp (in vitro): 2.11 ×10⁻⁶ cm/s; GI50 at 24 h [4]: 40 µg/mL (≈ 73.7 µM)
–	–	> 32 µg/mL	C=C1CN(C(=O)C(F)(F)F)C[C@@H]2Nc3c(F)cc(Br)cc3[C@]12CCNS(=O)(=O)c1ccc(Cl)cc1 [TFA-ATI 11c, N-(2-((4aS,9aR)-6-bromo-8-fluoro-4-methylene-2-(2,2,2-trifluoroacetyl)-1,2,3,4,9,9a-hexahydro-4aH-pyrido[3,4-b]indol-4a-yl)ethyl)-4-chlorobenzenesulfonamide]	–	4 µg/mL	4 µg/mL	antibacterial activity on its own (in words) [1]: without observable antibacterial activity; GI50 at 24 h [4]: 19 µg/mL
–	–	–	C=C1CCC2C3=Nc4ccccc4C13CCN2C(=O)c1ccc(Cl)cc1 (stereo not drawn) [Compound 11b, 11-[(4-Chlorophenyl)carbonyl]-14-methylidene-8,11-diazatetracyclo[8.3.3.0^1,9.0^2.7]hexadeca-2(7),3,5,8-tetraene]	–	–	–	MRCs [8]: 0.25 to 2 µg/mL; Fractional Inhibitory Concentration Index (FICI) (MRSA strain ATCC BAA-44): 0.039; MICs [9]: 32 to 64 µg/mL
–	–	–	COCCc1ccc(OCC(O)CNC(C)C)cc1 (stereo not drawn) [metoprolol]	–	–	–	Papp (in vitro): 53.5 ×10⁻⁶ cm/s

Compound	MIC (MRSA BAA-44)	MIC (+11b) (MRSA BAA-44)	MIC [1]	Fold of potentiation (MRSA BAA-44)	MRC Cef [2]	MRC Amox/clav [3]	other results
Cc1onc(-c2ccccc2)c1C(=O)N[C@@H]1C(=O)N2[C@@H]1SC(C)(C)[C@@H]2C(=O)O [Oxacillin]	32 µg/mL	1 µg/mL	–	32	–	–	–
C=C1CN(CC(=O)O)C[C@@H]2Nc3c(F)cc(Br)cc3[C@]12CCNS(=O)(=O)c1ccc(Cl)cc1 [Gly-ATI 14, 2-((4aS,9aR)-6-bromo-4a-(2-((4-chlorophenyl)sulfonamido)ethyl)-8-fluoro-4-methylene-1,3,4,4a,9,9a-hexahydro-2H-pyrido[3,4-b]indol-2-yl)acetic acid]	–	–	> 32 µg/mL	–	>32 µg/mL	>32 µg/mL	–
